Results reported in US12667574B2, “Paraxanthine-based bioactive composition and method of use thereof” (PX ING, LLC, priority 2021, dated 2026).

How the values were obtained:
[1] = test system: brain derived neuro factor, BDNF; assay: BDNF level, neuroplasticity (second Example 4); assay type: in vivo, rats; details: oral 14 days
Protocol: (§1) Distilled water was provided ad libitum. […] Ltd (Bangalore, India).
(§2) The following HED were used in this study: 50 mg paraxanthine, (ENFINITY™, Ingenious Ingredients, L.P Lewisville, TX, USA; rat dose: 5.141 mg/kg bw/day); 25 mg L-Theanine (rat dose: 2.570 mg/kg bw), and 50 mg paraxanthine plus 25 mg L-Theanine. 0.5% Carboxy Methyl Cellulose sodium was used as vehicle and the test item formulations were prepared daily. […] The last dose on day 14 was given 1 hour prior to testing.

male Swiss Albino mice = assay: Treadmill endurance test (first Example 4, L-Theanine); assay type: in vivo; details: oral once daily 28 days, HED 50 mg paraxanthine, 25 mg L-Theanine
Protocol: as §1
The following HED were used in this study: 50 mg paraxanthine, (ENFINITY™ Ingenious Ingredients, L.P Lewisville, TX, USA; mouse dose: 10.275 mg/kg bw/day); 25 mg L-Theanine (mouse dose: 5.137 mg/kg bw), and 50 mg paraxanthine plus 25 mg L-Theanine. 0.5% Carboxy Methyl Cellulose sodium was used as vehicle and the test item formulations were prepared daily.
During the treatment period, exercise training was completed using a motorized treadmill (Exer 3/6, Columbus Instruments international, OH, USA) at a moderate intensity of 20 cm/sec as maximal running speed, an incline of ten degrees and a shock intensity of 0.2 mA, for ten minutes. The speed of the treadmill was manually adjusted by increasing the belt speed by 5 cm/sec every two minutes throughout the total duration of ten minutes. All animals were adapted to this procedure daily 60 minutes after dosing for five days in a week during the treatment period. 1.3. Treadmill Endurance Test
Muscle endurance was accomplished on a motorized treadmill at a low to moderate intensity of 5-50 cm/sec as maximal running speed, an incline of ten degrees and a shock intensity of 0.2 mA, with the belt speed being increased by 5 cm/sec every two minutes until it reaches 50 cm/sec. Animals were subjected to the treadmill test until exhaustion.

[2] = test system: male Swiss Albino Wistar rats; assay: Walter Morris Maze test (second Example 4, L-Theanine); assay type: in vivo; details: oral 14 days
Protocol: as §1, §2
The Walter Morris Maze test consisted of a circular pool in a room with geometric shapes on the wall serving as spatial cues. The pool, which is 70 cm in diameter and painted with black color, filled with 13 cm depth of 25±1° C. water. A platform (6 cm diameter) was placed into one quadrant of the pool and submerged 1 cm below the water surface. For the training, all rats were trained to locate the submerged platform in a constant location. The training day consisted of four trials. During training, a rat started at one of four starting points and allowed to swim until it located the platform or until 60 seconds had elapsed. The rat was allowed to remain on the platform for 15 seconds before being dried off and later was transferred to a holding cage. […] The animals were continuously trained 4 times at 4 starting points continued daily for 4 days, the main trial was conducted on the 15th & 16th day and the latency of escaping onto the platform was recorded.

glutathione (GSH) [3] = assay: Glutathione level (second Example 4); assay type: in vivo, rats; details: oral 14 days
Protocol: as §1, §2

dopamine (dopa) [4] = assay: Dopamine concentration (second Example 4); assay type: in vivo, rats; details: oral 14 days
Protocol: as §1, §2

acetylcholine (Ach) [5] = assay: Acetylcholine concentration (second Example 4); assay type: in vivo, rats; details: oral 14 days
Protocol: as §1, §2

acetylcholine (Ach) [6] = assay: Acetylcholine concentration (Example 3); assay type: in vivo, rats; details: oral 14 days
Protocol: as §1
(§3) 0.5% Carboxy Methyl Cellulose sodium was used as vehicle and the test item formulations were prepared daily. […] The last dose on day 14 was given 1 hour prior to testing.

dopamine (dopa) [7] = assay: Dopamine concentration (Example 3); assay type: in vivo, rats; details: oral 14 days
Protocol: as §1, §3

[8] = test system: male Swiss Albino Wistar rats; assay: Walter Morris Maze test (Example 3); assay type: in vivo; details: oral 14 days
Protocol: Distilled water was provided ad libitum. […] Ltd (Bangalore, India). […] The last dose on day 14 was given 1 hour prior to testing. The Walter Morris Maze test consisted of a circular pool in a room with geometric shapes on the wall serving as spatial cues. The pool, which is 70 cm in diameter and painted with black color, filled with 13 cm depth of 25±1° C. water. A platform (6 cm diameter) was placed into one quadrant of the pool and submerged 1 cm below the water surface. For the training, all rats were trained to locate the submerged platform in constant location. The training day consisted of four trials. […] The rat was allowed to remain on the platform for 15 seconds before being dried off and later was transferred to a holding cage.

glutathione (GSH) [9] = assay: Glutathione level (Example 3); assay type: in vivo, rats; details: oral 14 days
Protocol: as §1, §3

[10] = test system: brain derived neuro factor, BDNF; assay: BDNF level, neuroplasticity (Example 3); assay type: in vivo, rats; details: oral 14 days
Protocol: as §1, §3

CCNC(=O)CC[C@H](N)C(=O)O [L-Theanine, N5-ethyl-L-glutamine, reference compound]
BDNF ([1]; old rats): 789.1 ± 2.03 pg/mL
BDNF ([1]; young rats): 866 ± 8.66 pg/mL
distance travelled during treadmill exercise (male Swiss Albino mice): 295.17±6.11 m
escape latency ([2]; old rats (16-month-old)): 44.67 ± 2.16 s
escape latency ([2]; young rats (8-week-old)): 38.33 ± 2.07 s
glutathione (GSH) level (glutathione (GSH) [3]; old rats): 23.87 ± 0.45 µg/mL
glutathione (GSH) level (glutathione (GSH) [3]; young rats): 31.72 ± 0.53 µg/mL
dopamine (dopa) concentration (dopamine (dopa) [4]; old rats): 473.03 ± 6.05 ng/L
dopamine (dopa) concentration (dopamine (dopa) [4]; young rats): 528.18 ± 4.09 ng/L
acetylcholine (Ach) concentration (acetylcholine (Ach) [5]; old rats): 55.89±1.05 U/mL
acetylcholine (Ach) concentration (acetylcholine (Ach) [5]; young rats): 62.83±0.91 U/mL

C[N+](C)(C)CCOP(=O)([O-])OC[C@H](O)CO [alpha-GPC, L-Alpha glycerylphosphorylcholine, reference compound]
acetylcholine (Ach) concentration (acetylcholine (Ach) [6]; old rats): 56.89±1.76 U/mL
acetylcholine (Ach) concentration (acetylcholine (Ach) [6]; young rats): 65.89±1.64 U/mL
dopamine (dopa) concentration (dopamine (dopa) [7]; old rats): 506.35 ± 2.82 ng/L
dopamine (dopa) concentration (dopamine (dopa) [7]; young rats): 563.55 ± 7.98 ng/L
escape latency ([8]; old rats (16-month-old)): 39.83 ± 0.98 s
escape latency ([8]; young rats (8-week-old)): 34.83 ± 1.33 s
glutathione (GSH) level (glutathione (GSH) [9]; old rats): 24.72 ± 0.48 µg/mL
glutathione (GSH) level (glutathione (GSH) [9]; young rats): 31.72 ± 0.53 µg/mL
BDNF ([10]; old rats): 881.70 ± 10.41 µg/mL
BDNF ([10]; young rats): 881.70 ± 10.41 µg/mL
